{
  "source": "ChEMBL document CHEMBL1697731",
  "about": "“Cheminformatics analysis of assertions mined from literature that describe drug-induced liver injury in different species” (Chem Res Toxicol, 2010)",
  "key": {"Hepatotoxicity [1]": {"tested_on": "Hepatotoxicity", "experiment": "Literature-mined compound from Fourches et al multi-species drug-induced liver injury (DILI) dataset, effect in non-rodents"}, "Hepatotoxicity [2]": {"tested_on": "Hepatotoxicity", "experiment": "Literature-mined compound from Fourches et al multi-species drug-induced liver injury (DILI) dataset, effect in humans", "details": "human"}, "Hepatotoxicity [3]": {"tested_on": "Hepatotoxicity", "experiment": "Literature-mined compound from Fourches et al multi-species drug-induced liver injury (DILI) dataset, effect in rodents", "details": "rodentia"}},
  "data": [
    {"compound": "CN(N=O)C(=O)N[C@@H](C=O)[C@@H](O)[C@H](O)[C@H](O)CO", "note": "[STREPTOZOCIN]", "values": [
      {"measurement": "Hepatotoxicity", "setting": "Hepatotoxicity [1]", "value": "drug-induced liver injury reported"},
      {"measurement": "Hepatotoxicity", "setting": "Hepatotoxicity [2]", "value": "no drug-induced liver injury reported"},
      {"measurement": "Hepatotoxicity", "setting": "Hepatotoxicity [3]", "value": "drug-induced liver injury reported"}
    ]},
    {"compound": "O=C(OCC(COC(=O)c1cccnc1)(COC(=O)c1cccnc1)COC(=O)c1cccnc1)c1cccnc1", "note": "[NICERITROL]", "values": [
      {"measurement": "Hepatotoxicity", "setting": "Hepatotoxicity [1]", "value": "drug-induced liver injury reported"},
      {"measurement": "Hepatotoxicity", "setting": "Hepatotoxicity [2]", "value": "no drug-induced liver injury reported"},
      {"measurement": "Hepatotoxicity", "setting": "Hepatotoxicity [3]", "value": "no drug-induced liver injury reported"}
    ]},
    {"compound": "CNC(=O)[C@H](Cc1c[nH]c2ccccc12)NC(=O)[C@@H](CC(=O)NO)CC(C)C", "note": "[ILOMASTAT]", "values": [
      {"measurement": "Hepatotoxicity", "setting": "Hepatotoxicity [1]", "value": "no drug-induced liver injury reported"},
      {"measurement": "Hepatotoxicity", "setting": "Hepatotoxicity [2]", "value": "no drug-induced liver injury reported"},
      {"measurement": "Hepatotoxicity", "setting": "Hepatotoxicity [3]", "value": "drug-induced liver injury reported"}
    ]},
    {"compound": "C[N+](C)(C)CC(=O)O", "note": "[BETAINE]", "values": [
      {"measurement": "Hepatotoxicity", "setting": "Hepatotoxicity [1]", "value": "no drug-induced liver injury reported"},
      {"measurement": "Hepatotoxicity", "setting": "Hepatotoxicity [2]", "value": "no drug-induced liver injury reported"},
      {"measurement": "Hepatotoxicity", "setting": "Hepatotoxicity [3]", "value": "drug-induced liver injury reported"}
    ]},
    {"compound": "CCCC(C)C1(CC)C(=O)NC(=O)NC1=O", "note": "(stereo not given) [PENTOBARBITAL]", "values": [
      {"measurement": "Hepatotoxicity", "setting": "Hepatotoxicity [1]", "value": "drug-induced liver injury reported"},
      {"measurement": "Hepatotoxicity", "setting": "Hepatotoxicity [2]", "value": "drug-induced liver injury reported"},
      {"measurement": "Hepatotoxicity", "setting": "Hepatotoxicity [3]", "value": "drug-induced liver injury reported"}
    ]},
    {"compound": "CO/N=C(\\C(=O)N[C@@H]1C(=O)N2C(C(=O)O)=C(COC(C)=O)CS[C@H]12)c1csc(N)n1", "note": "[CEFOTAXIME]", "values": [
      {"measurement": "Hepatotoxicity", "setting": "Hepatotoxicity [1]", "value": "no drug-induced liver injury reported"},
      {"measurement": "Hepatotoxicity", "setting": "Hepatotoxicity [2]", "value": "drug-induced liver injury reported"},
      {"measurement": "Hepatotoxicity", "setting": "Hepatotoxicity [3]", "value": "no drug-induced liver injury reported"}
    ]},
    {"compound": "CC(C)CC(N(C)C)C1(c2ccc(Cl)cc2)CCC1", "note": "(stereo not given) [SIBUTRAMINE]", "values": [
      {"measurement": "Hepatotoxicity", "setting": "Hepatotoxicity [1]", "value": "no drug-induced liver injury reported"},
      {"measurement": "Hepatotoxicity", "setting": "Hepatotoxicity [2]", "value": "drug-induced liver injury reported"},
      {"measurement": "Hepatotoxicity", "setting": "Hepatotoxicity [3]", "value": "no drug-induced liver injury reported"}
    ]},
    {"compound": "CCC(=O)O[C@H]1CC[C@H]2[C@@H]3CCC4=CC(=O)CC[C@]4(C)[C@H]3CC[C@]12C", "note": "[TESTOSTERONE PROPIONATE]", "values": [
      {"measurement": "Hepatotoxicity", "setting": "Hepatotoxicity [1]", "value": "no drug-induced liver injury reported"},
      {"measurement": "Hepatotoxicity", "setting": "Hepatotoxicity [2]", "value": "no drug-induced liver injury reported"},
      {"measurement": "Hepatotoxicity", "setting": "Hepatotoxicity [3]", "value": "drug-induced liver injury reported"}
    ]},
    {"compound": "MANGAFODIPIR TRISODIUM", "values": [
      {"measurement": "Hepatotoxicity", "setting": "Hepatotoxicity [1]", "value": "no drug-induced liver injury reported"},
      {"measurement": "Hepatotoxicity", "setting": "Hepatotoxicity [2]", "value": "drug-induced liver injury reported"},
      {"measurement": "Hepatotoxicity", "setting": "Hepatotoxicity [3]", "value": "no drug-induced liver injury reported"}
    ]},
    {"compound": "CC(=O)O[C@@]12CO[C@@H]1C[C@H](O)[C@@]1(C)C(=O)[C@H](O)C3=C(C)[C@@H](OC(=O)[C@H](O)[C@@H](NC(=O)OC(C)(C)C)c4ccccc4)C[C@@](O)([C@@H](OC(=O)c4ccccc4)[C@H]21)C3(C)C.O.O.O", "note": "[DOCETAXEL]", "values": [
      {"measurement": "Hepatotoxicity", "setting": "Hepatotoxicity [1]", "value": "no drug-induced liver injury reported"},
      {"measurement": "Hepatotoxicity", "setting": "Hepatotoxicity [2]", "value": "drug-induced liver injury reported"},
      {"measurement": "Hepatotoxicity", "setting": "Hepatotoxicity [3]", "value": "drug-induced liver injury reported"}
    ]},
    {"compound": "COc1c(N2C[C@@H]3CCCN[C@@H]3C2)c(F)cc2c(=O)c(C(=O)O)cn(C3CC3)c12", "note": "[MOXIFLOXACIN]", "values": [
      {"measurement": "Hepatotoxicity", "setting": "Hepatotoxicity [1]", "value": "no drug-induced liver injury reported"},
      {"measurement": "Hepatotoxicity", "setting": "Hepatotoxicity [2]", "value": "drug-induced liver injury reported"},
      {"measurement": "Hepatotoxicity", "setting": "Hepatotoxicity [3]", "value": "no drug-induced liver injury reported"}
    ]},
    {"compound": "CC(=O)O.N=C(N)N/N=C/c1c(Cl)cccc1Cl", "note": "[GUANABENZ ACETATE]", "values": [
      {"measurement": "Hepatotoxicity", "setting": "Hepatotoxicity [1]", "value": "no drug-induced liver injury reported"},
      {"measurement": "Hepatotoxicity", "setting": "Hepatotoxicity [2]", "value": "no drug-induced liver injury reported"},
      {"measurement": "Hepatotoxicity", "setting": "Hepatotoxicity [3]", "value": "drug-induced liver injury reported"}
    ]},
    {"compound": "CC(=O)Nc1ccc(O)cc1", "note": "[ACETAMINOPHEN]", "values": [
      {"measurement": "Hepatotoxicity", "setting": "Hepatotoxicity [1]", "value": "drug-induced liver injury reported"},
      {"measurement": "Hepatotoxicity", "setting": "Hepatotoxicity [2]", "value": "drug-induced liver injury reported"},
      {"measurement": "Hepatotoxicity", "setting": "Hepatotoxicity [3]", "value": "drug-induced liver injury reported"}
    ]},
    {"compound": "CCCCC[C@H](O)/C=C/[C@@H]1[C@H]2C/C(=C/CCCC(=O)[O-])O[C@H]2C[C@H]1O.[Na+]", "note": "[EPOPROSTENOL SODIUM]", "values": [
      {"measurement": "Hepatotoxicity", "setting": "Hepatotoxicity [1]", "value": "no drug-induced liver injury reported"},
      {"measurement": "Hepatotoxicity", "setting": "Hepatotoxicity [2]", "value": "no drug-induced liver injury reported"},
      {"measurement": "Hepatotoxicity", "setting": "Hepatotoxicity [3]", "value": "drug-induced liver injury reported"}
    ]},
    {"compound": "CNCC[C@@H](Oc1ccccc1C)c1ccccc1.Cl", "note": "[ATOMOXETINE HYDROCHLORIDE]", "values": [
      {"measurement": "Hepatotoxicity", "setting": "Hepatotoxicity [1]", "value": "no drug-induced liver injury reported"},
      {"measurement": "Hepatotoxicity", "setting": "Hepatotoxicity [2]", "value": "drug-induced liver injury reported"},
      {"measurement": "Hepatotoxicity", "setting": "Hepatotoxicity [3]", "value": "no drug-induced liver injury reported"}
    ]},
    {"compound": "Nc1nc(Cl)nc2c1ncn2[C@H]1C[C@H](O)[C@@H](CO)O1", "note": "[CLADRIBINE]", "values": [
      {"measurement": "Hepatotoxicity", "setting": "Hepatotoxicity [1]", "value": "no drug-induced liver injury reported"},
      {"measurement": "Hepatotoxicity", "setting": "Hepatotoxicity [2]", "value": "drug-induced liver injury reported"},
      {"measurement": "Hepatotoxicity", "setting": "Hepatotoxicity [3]", "value": "no drug-induced liver injury reported"}
    ]},
    {"compound": "CCOC(=O)C1=C(C)NC(C)=C(C(=O)OC)C1c1cccc([N+](=O)[O-])c1", "note": "(stereo not given) [NITRENDIPINE]", "values": [
      {"measurement": "Hepatotoxicity", "setting": "Hepatotoxicity [1]", "value": "no drug-induced liver injury reported"},
      {"measurement": "Hepatotoxicity", "setting": "Hepatotoxicity [2]", "value": "drug-induced liver injury reported"},
      {"measurement": "Hepatotoxicity", "setting": "Hepatotoxicity [3]", "value": "drug-induced liver injury reported"}
    ]},
    {"compound": "C#C[C@]1(O)CC[C@H]2[C@@H]3CCc4cc(OC5CCCC5)ccc4[C@H]3CC[C@@]21C", "note": "[QUINESTROL]", "values": [
      {"measurement": "Hepatotoxicity", "setting": "Hepatotoxicity [1]", "value": "no drug-induced liver injury reported"},
      {"measurement": "Hepatotoxicity", "setting": "Hepatotoxicity [2]", "value": "no drug-induced liver injury reported"},
      {"measurement": "Hepatotoxicity", "setting": "Hepatotoxicity [3]", "value": "drug-induced liver injury reported"}
    ]},
    {"compound": "NCCCC[C@H](NC(=O)[C@@H]1CCCN1C(=O)[C@@H]1CSSC[C@H](NC(=O)CNC(=O)CNC(=O)CN)C(=O)N[C@@H](Cc2ccc(O)cc2)C(=O)N[C@@H](Cc2ccccc2)C(=O)N[C@@H](CCC(N)=O)C(=O)N[C@@H](CC(N)=O)C(=O)N1)C(=O)NCC(N)=O", "note": "[TERLIPRESSIN]", "values": [
      {"measurement": "Hepatotoxicity", "setting": "Hepatotoxicity [1]", "value": "drug-induced liver injury reported"},
      {"measurement": "Hepatotoxicity", "setting": "Hepatotoxicity [2]", "value": "drug-induced liver injury reported"},
      {"measurement": "Hepatotoxicity", "setting": "Hepatotoxicity [3]", "value": "no drug-induced liver injury reported"}
    ]},
    {"compound": "Cc1cc(O)cc(C)c1Cl", "note": "[CHLOROXYLENOL]", "values": [
      {"measurement": "Hepatotoxicity", "setting": "Hepatotoxicity [1]", "value": "no drug-induced liver injury reported"},
      {"measurement": "Hepatotoxicity", "setting": "Hepatotoxicity [2]", "value": "no drug-induced liver injury reported"},
      {"measurement": "Hepatotoxicity", "setting": "Hepatotoxicity [3]", "value": "drug-induced liver injury reported"}
    ]}
  ]
}
